Measurements from US8008329B2 (Dong Wha Pharmaceutical Co., Ltd., priority 2008, dated 2011).
Marks after values point to notes of the source that are not given here.

Test system: osteoclast differentiation
Assay: Osteoclast differentiation in co-culture of mouse bone marrow cells and ST2 cells, TRAP staining (Examples 8-9)
Type: cell-based
Conditions: for % number of osteoclast (vs. solvent control group): 0.1 μM each, day 7; for activity at 0.1 µM: Mus musculus, Osteoclast, 168 h, Individual treatment (compounds), day 7, read-out: % number of osteoclast (vs. solvent control group)
Outline: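 Readout was TRAP-positive multinucleated (≥6 nuclei) cells on day 7, reported as % of 0.1% DMSO control, mean±SD of 4 wells. Cells were mouse (male ddY) bone marrow plus ST2 co-cultures driven by 10^−8 M vitamin D3/dexamethasone. Benzamidines, alendronic acid or risedronic acid were added at 0.1 μM alone or combined, with media renewed days 3 and 5.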

[1] = Combination treatment (alendronic acid + compounds)
[2] = Combination treatment (risedronic acid + compounds)

SMILES	% number of osteoclast (vs. solvent control group) [1]	% number of osteoclast (vs. solvent control group) [2]	activity at 0.1 µM [%]
N=C(NO)c1ccc(OCCCCCOc2ccc(-c3nc(N4CCCCC4)sc3CC3CCCC3)cc2)cc1 [Compound 167, N-hydroxy-4-{5-[4-(5-cyclopentylmethyl-2-piperidino-1,3-thiazol-4-yl)phenoxy]pentyloxy}-benzamidine]	25 ± 1.9^b %	31 ± 7.6^ac %	72 ± 9.8
CN(Cc1cccnc1)c1nc(-c2ccc(OCCCCCOc3ccc(C(=N)NO)cc3)cc2)c(CC2CCCC2)s1 [Compound 147, N-hydroxy-4-[5-(4-{5-cyclopentylmethyl-2-[methyl-(pyridin-3-ylmethyl)amino]-1,3-thiazol-4-yl}phenoxy)pentyloxy]-benzamidine]	31 ± 3.2^ab %	14 ± 3.0^ac %	46 ± 4.1
N=C(NO)c1ccc(OCCCCCOc2ccc(-c3nc(C4CCCCC4)sc3CCN(C(=O)c3cccnc3)C3CC3)cc2)cc1 [Compound 281, N-hydroxy-4-{5-[4-(2-cyclohexyl-5-{2-[cyclopropyl-(pyridin-3-carbonyl)-amino]-ethyl}-thiazol-4-yl)-phenoxy]-pentyloxy}-benzamidine]	22 ± 5.9^b %	6 ± 2.5^ac %	30 ± 7.6
N=C(NO)c1ccc(OCCCCCOc2ccc(-c3csc(-c4cccnc4)n3)cc2)cc1 [Compound 7, N-hydroxy-4-{5-[4-(2-pyridine-3-yl-1,3-thiazol-4-yl)phenoxy]pentyloxy}-benzamidine]	35 ± 7.1^b %	34 ± 10.1^c %	52 ± 4.8
Cc1nc(-c2ccc(OCCCCCOc3ccc(C(=N)NO)cc3)cc2)c(CNC(C)(C)C)s1 [Compound 300, N-hydroxy-4-(5-{4-[5-(tert-butylamino-methyl)-2-methyl-thiazol-4-yl]-phenoxy}-pentyloxy)-benzamidine]	12 ± 1.7^ab %	8 ± 5.2^ac %	48 ± 3
CCc1nc(-c2ccc(OCCCCCOc3ccc(C(=N)NO)cc3)cc2)c(CCN2CCSCC2)s1 [Compound 256, N-hydroxy-4-(5-{4-[2-ethyl-5-(2-thiomorpholin-4-yl-ethyl)-thiazol-4-yl]-phenoxy}-pentyloxy)-benzamidine]	26 ± 3.0^ab %	12 ± 2.4^ac %	49 ± 0.9
CCN(C)c1nc(-c2ccc(OCCCCCOc3ccc(C(=N)NO)cc3)cc2)c(CN2CCOCC2)s1 [Compound 311, N-hydroxy-4-(5-{4-[2-(ethyl-methyl-amino)-5-morpholin-4-ylmethyl-thiazol-4-yl]-phenoxy}-pentyloxy)-benzamidine]	21 ± 4.2^b %	12 ± 5.8^ac %	46 ± 10.7
N=C(NO)c1ccc(OCCCCCOc2ccc(-c3csc(C4CCCCC4)n3)cc2)cc1 [Compound 8, N-hydroxy-4-{5-[4-(2-cyclohexyl-1,3-thiazol-4-yl)phenoxy]pentyloxy}-benzamidine]	22 ± 3.4^ab %	27 ± 3.8^ac %	65 ± 10.4
Cc1sc(NC(=O)c2ccncc2)nc1-c1ccc(OCCCCCOc2ccc(C(=N)NO)cc2)cc1 [Compound 91, N-hydroxy-4-{5-[4-(5-methyl-2-(4-pyridylcarbonyl)amino-1,3-thiazol-4-yl)phenoxy]pentyloxy}-benzamidine]	35 ± 2.7^ab %	32 ± 7.0^ac %	60 ± 8.8
Cc1nc(-c2ccc(OCCCCCOc3ccc(C(=N)NO)cc3)cc2)c(CCN2CCN(C)CC2)s1 [Compound 232, N-hydroxy-4-[5-(4-{2-methyl-5-[2-(4-methyl-piperazin-1-yl)-ethyl]-thiazol-4-yl}-phenoxy)-pentyloxy]-benzamidine]	39 ± 5.2^b %	37 ± 4.9^c %	47 ± 9.4
N=C(NO)c1ccc(OCCCCCOc2ccc(-c3nc(-c4ccccc4)sc3Cc3ccccc3)cc2)cc1 [Compound 40, N-hydroxy-4-{5-[4-(5-benzyl-2-phenyl-1,3-thiazol-4-yl)phenoxy]pentyloxy}-benzamidine]	28 ± 4.1^ab %	20 ± 3.4^ac %	66 ± 7.1
Cc1nc(-c2ccc(OCCCCCOc3ccc(C(=N)NO)cc3)cc2)c(CCN2CCCCC2)s1 [Compound 216, N-hydroxy-4-(5-{4-[2-methyl-5-(2-piperidin-1-yl-ethyl)-thiazol-4-yl]-phenoxy}-pentyloxy)-benzamidine]	72 ± 13.0%	48 ± 7.8^ac %	70 ± 5
Cc1nc(-c2ccc(OCCCCCNc3ccc(C(=N)NO)cc3)cc2)c(C(C)C)s1 [Compound 177, N-hydroxy-4-{5-[4-(5-isopropyl-2-methyl-1,3-thiazol-4-yl)-phenoxy]-pentylamino}-benzamidine]	34 ± 10.2^ab %	34 ± 5.7^ac %	74 ± 10.1
Cc1sc(NC(=O)CO)nc1-c1ccc(OCCCCCOc2ccc(C(=N)NO)cc2)cc1 [Compound 90, N-hydroxy-4-{5-[4-(2-hydroxyacetylamino-5-methyl-1,3-thiazol-4-yl)phenoxy]pentyloxy}-benzamidine]	54 ± 8.6^ab %	39 ± 8.4^ac %	87 ± 10
CCc1sc(N(CC)CCN2CCOCC2)nc1-c1ccc(OCCCCCOc2ccc(C(=N)NO)cc2)cc1 [Compound 132, N-hydroxy-4-[5-(4-{5-ethyl-2-[ethyl-(2-morpholinoethyl)-amino]-1,3-thiazol-4-yl}phenoxy)pentyloxy]-benzamidine]	37 ± 8.3^ab %	30 ± 3.4^ac %	62 ± 7.7
CCc1nc(-c2ccc(OCCCCCOc3ccc(C(=N)NO)cc3)cc2)c(CC2CCCC2)s1 [Compound 46, N-hydroxy-4-{5-[4-(5-cyclopentylmethyl-2-ethyl-1,3-thiazol-4-yl)phenoxy]pentyloxy}-benzamidine]	36 ± 5.1^ab %	31 ± 8.5^ac %	71 ± 9.4
CCc1sc(N(C)Cc2cccnc2)nc1-c1ccc(OCCCCCOc2ccc(C(=N)NO)cc2)cc1 [Compound 134, N-hydroxy-4-[5-(4-{5-ethyl-2-[methyl-(pyridin-3-ylmethyl)amino]-1,3-thiazol-4-yl}phenoxy)pentyloxy]-benzamidine]	39 ± 3.4^ab %	24 ± 4.0^ac %	57 ± 4.3
Cc1nc(-c2ccc(OCc3ccccc3COc3ccc(C(=N)NO)cc3)cc2)c(C(C)C)s1 [Compound 208, N-hydroxy-4-{2-[4-(5-isopropyl-2-methyl-thiazol-4-yl)-phenoxymethyl]-benzyloxy}-benzamidine]	75 ± 6.3%	67 ± 6.5^ac %	92 ± 5.8
Cc1nc(-c2ccc(OCCCCCOc3ccc(C(=N)NO)cc3)cc2)c(CCCl)s1 [Compound 42, N-hydroxy-4-{5-[4-(5-(2-chloro-ethyl)-2-methyl-1,3-thiazol-4-yl)phenoxy]pentyloxy}-benzamidine]	33 ± 1.9^ab %	32 ± 8.0^ac %	69 ± 11.4
N=C(NO)c1ccc(OCCCCCOc2ccc(-c3nc(N4CCCCC4)sc3N3CCOCC3)cc2)cc1 [Compound 337, N-hydroxy-4-{5-[4-(5-morpholin-4-yl-2-piperidin-1-yl-thiazol-4-yl)-phenoxy]-pentyloxy}-benzamidine]	20 ± 3.0^ab %	16 ± 3.6^ac %	53 ± 3.7
CCN(Cc1ccccc1)c1nc(-c2ccc(OCCCCCOc3ccc(C(=N)NO)cc3)cc2)c(C)s1 [Compound 127, N-hydroxy-4-[5-{4-[2-(benzyl-ethyl-amino)-5-methyl-1,3-thiazol-4-yl]phenoxy}pentyloxy]-benzamidine]	37 ± 6.8^ab %	33 ± 7.3^ac %	75 ± 14.3
N=C(NO)c1ccc(OCCCCCOc2ccc(-c3nc(N4CCOCC4)sc3CC3CCCC3)cc2)cc1 [Compound 168, N-hydroxy-4-{5-[4-(5-cyclopentylmethyl-2-morpholino-1,3-thiazol-4-yl)phenoxy]pentyloxy}-benzamidine]	39 ± 5.2^ab %	29 ± 9.7^ac %	70 ± 9.1
Cc1sc(NC(=O)C(C)C)nc1-c1ccc(OCCCCCOc2ccc(C(=N)NO)cc2)cc1 [Compound 69, N-hydroxy-4-{5-[4-(2-(isobutyryl)amino-5-methyl-1,3-thiazol-4-yl)phenoxy]pentyloxy}-benzamidine]	49 ± 7.8^ab %	44 ± 1.4^ac %	80 ± 11.6
CCCCc1sc(C(C)(C)C)nc1-c1ccc(OCCCCCOc2ccc(C(=N)NO)cc2)cc1 [Compound 37, N-hydroxy-4-{5-[4-(5-butyl-2-t-butyl-1,3-thiazol-4-yl)phenoxy]pentyloxy}-benzamidine]	30 ± 9.9^b %	36 ± 14.4^c %	68 ± 18.9
